The record followed here is patent publication US10813938B2 (priority 2015, dated 2020).

In brackets after ≈: the same amount, converted by molar mass.

Series [1] can be described thus: RH stability study (~97% RH, XRPD before/after). As to conditions: ~97% relative humidity, 1 day, ambient temperature; FIG. 16.
The nature of series [2]: physchem. As to conditions: pH 6.8, aqueous buffer, thermodynamic from solid. As to the method: The injection volume was 15 μL. […] The following gradient was used: […]

On to `Cn1c(=O)c2c(ncn2C)n(C)c1=O` [Caffeine], for which the “Solid form after exposure to ~97% RH (XRPD)” value in series [1] is given as “conversion to the hydrate”.
As for `O=C(O[C@@H]1Cc2c(O)cc(O)cc2O[C@@H]1c1cc(O)c(O)c(O)c1)c1cc(O)c(O)c(O)c1` [EGCG, Epigallocatechin gallate], the solubility – broadly, how much of the substance goes into solution per volume – at 24 h in series [2] is 24 mg/mL (≈ 52.4 mM).
